The results in this text go back to ChEMBL document CHEMBL1201862, “PubChem BioAssay data set” (2004).

For orientation: GI50 means the concentration that inhibits growth by half.

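Cultured in 96-well plates, cells were exposed to test compound for 48 hours across five concentrations. Abbreviation: GI50, concentration required for 50% inhibition of growth.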 Activity calls are given as the source filed them. No stated cut-off is given here; in the data, active = GI50 up to about 1.1 µM and inactive = higher. Some results are limits rather than exact numbers.

Among the test systems are KM12; MDA-MB-231; T47D; MOLT-4; SF-268; RXF 393; SK-MEL-2; UO-31; DU-145; SK-OV-3; PC-3; OVCAR-5; K562; A549; SK-MEL-28; OVCAR-4; HOP-92; HT-29; A498.
Assay in all cases: DTP human tumour cell line panel, 48 h

Consider `Cc1cc(C23OC4COC(C)(C)OC4C2OC(C)(C)O3)nc2ccccc12` (centres undefined), for which the GI50 is > 100 µM (inactive) in the experiment with KM12; > 100 µM (inactive) with MDA-MB-231; > 100 µM (inactive) in the experiment on T47D; 25.5 µM (inactive) in the experiment with MOLT-4; > 100 µM (inactive) in the experiment on SF-268; > 100 µM (inactive) with RXF 393. The GI50 in the experiment on SK-MEL-2 is > 100 µM (inactive); in the experiment on UO-31, > 100 µM (inactive); in the experiment on DU-145, > 100 µM (inactive); with SK-OV-3 it was > 100 µM (inactive); in the experiment on PC-3 it was 78.2 µM (inactive); with OVCAR-5 it was > 100 µM (inactive). Further, the GI50 in the experiment on K562 was 44.1 µM (inactive); in the experiment with A549, > 100 µM (inactive); with SK-MEL-28, > 100 µM (inactive); in the experiment with OVCAR-4, > 100 µM (inactive); in the experiment on HOP-92, > 100 µM (inactive); in the experiment on HT-29 it was 76.6 µM (inactive).
In the case of `COC(=O)/C=C/c1cc(O)c2c(c1)[C@H](C(=O)OC)[C@@H](c1ccc(O)c(O)c1)O2`, the GI50 with KM12 was 0.283 µM (active); in the experiment with A498, 6.82 µM (inactive); in the experiment with MOLT-4, 0.0753 µM (active); with SF-268, 0.635 µM (active); in the experiment with SK-MEL-2, 0.0783 µM (active); with UO-31, 0.189 µM (active). Also, the GI50 is 0.273 µM (active) in the experiment on DU-145; 0.319 µM (active) with SK-OV-3; 1.57 µM (inactive) with PC-3; 35.7 µM (inactive) in the experiment on OVCAR-5; 0.0306 µM (active) in the experiment on K562; 0.877 µM (active) in the experiment on A549. Moreover, the GI50 with SK-MEL-28 is 0.132 µM (active); in the experiment on OVCAR-4, 2.76 µM (inactive); with HOP-92 it was 9.89 µM (inactive); with HT-29, 3.16 µM (inactive).
Turning to `c1cc(C2=NCCO2)c2ccsc2c1`, the GI50 with KM12, in the experiment with MDA-MB-231, with T47D, in the experiment with A498, in the experiment with MOLT-4 and with SF-268 was > 100 µM (inactive) throughout. The GI50 in the experiment with RXF 393, in the experiment on SK-MEL-2, in the experiment with UO-31, with DU-145, in the experiment on SK-OV-3 and with PC-3 was > 100 µM (inactive) throughout. For the same molecule, the GI50 with OVCAR-5 is > 100 µM (inactive); with K562 it was > 100 µM (inactive); in the experiment on A549 it was > 100 µM (inactive); in the experiment on SK-MEL-28, > 100 µM (inactive); in the experiment with OVCAR-4, > 100 µM (inactive); with HOP-92, 41.2 µM (inactive). Further, the GI50 in the experiment with HT-29 was > 100 µM (inactive).
With `Cc1ccc2nc3ccccc3c(C3C4C(=O)N(c5ccc(Br)cc5Cl)C(=O)C4ON3C(C(N)=O)c3ccccc3)c2c1` (centres undefined), the GI50 in the experiment with KM12 was > 25 µM (inactive); with MDA-MB-231, > 25 µM (inactive); in the experiment on T47D it was > 25 µM (inactive); in the experiment with A498, > 25 µM (inactive); with MOLT-4 it was 8.73 µM (inactive); in the experiment with SF-268, > 25 µM (inactive). Also, the GI50 in the experiment with RXF 393 was 13.3 µM (inactive); with SK-MEL-2 it was 18.1 µM (inactive); in the experiment on UO-31, 7.41 µM (inactive); with DU-145 it was > 25 µM (inactive); in the experiment on SK-OV-3, > 25 µM (inactive); in the experiment with PC-3, > 25 µM (inactive). Also, the GI50 was > 25 µM (inactive) in the experiment with OVCAR-5; > 25 µM (inactive) with K562; > 25 µM (inactive) with A549; > 25 µM (inactive) with SK-MEL-28; 19.7 µM (inactive) in the experiment with OVCAR-4; > 25 µM (inactive) with HOP-92. In addition, the GI50 with HT-29 is 11.2 µM (inactive).
With `Nc1nc(Nc2ccccc2)c2[nH]cnc2n1`, the GI50 with KM12 is 35.6 µM (inactive); in the experiment on MDA-MB-231, > 100 µM (inactive); in the experiment on T47D it was > 100 µM (inactive); in the experiment on A498, 20.3 µM (inactive); in the experiment with MOLT-4 it was 38.9 µM (inactive); in the experiment with RXF 393 it was > 100 µM (inactive). Also, the GI50 in the experiment with SK-MEL-2 is 66.2 µM (inactive); in the experiment on UO-31 it was 34.8 µM (inactive); in the experiment on DU-145 it was 77.3 µM (inactive); in the experiment with SK-OV-3, 84.5 µM (inactive); with PC-3, > 100 µM (inactive); in the experiment on K562, 62.5 µM (inactive). For the same molecule, the GI50 in the experiment on A549 was > 100 µM (inactive); in the experiment on SK-MEL-28 it was > 100 µM (inactive); in the experiment with OVCAR-4, > 100 µM (inactive); in the experiment on HOP-92, 32.2 µM (inactive); in the experiment with HT-29, 63.7 µM (inactive).
On to `Oc1ccc(/C=N/NC(=S)Nc2cccnc2)nc1`, for which the GI50 is 6.71 µM (inactive) in the experiment with KM12; 2.32 µM (inactive) with MDA-MB-231; 8.69 µM (inactive) with T47D; 33.7 µM (inactive) in the experiment on A498; 2.8 µM (inactive) with MOLT-4; 1.39 µM (inactive) in the experiment on SF-268. Also, the GI50 in the experiment on SK-MEL-2 is 7.08 µM (inactive); in the experiment on UO-31, 2.78 µM (inactive); in the experiment on DU-145 it was 3.72 µM (inactive); with SK-OV-3, 8.99 µM (inactive); in the experiment on PC-3, > 22 µM (inactive); with OVCAR-5, 40.3 µM (inactive). For the same molecule, the GI50 with K562 is 3.99 µM (inactive); in the experiment with A549 it was 38.3 µM (inactive); in the experiment with SK-MEL-28, 6.18 µM (inactive); with OVCAR-4, > 76.6 µM (inactive); in the experiment on HOP-92 it was 5.38 µM (inactive); in the experiment on HT-29 it was 5.33 µM (inactive).
In the case of `O=C(O)CNc1ncc2c(n1)-c1ccccc1OC2`, the GI50 in the experiment with KM12, with MDA-MB-231, in the experiment with MOLT-4, in the experiment on SF-268, in the experiment with RXF 393 and in the experiment on SK-MEL-2 was > 100 µM (inactive) throughout. The GI50 in the experiment with UO-31, in the experiment on DU-145, in the experiment with SK-OV-3, in the experiment with PC-3, with OVCAR-5 and in the experiment on K562 was > 100 µM (inactive) throughout. Further, the GI50 in the experiment on A549, with SK-MEL-28, in the experiment on OVCAR-4, with HOP-92 and in the experiment on HT-29 was > 100 µM (inactive) in each case.
On to `COc1ccc(O)c(C(=O)CCC(=O)O)c1`, for which the GI50 with KM12, with A498, in the experiment with MOLT-4, in the experiment on SF-268, with RXF 393 and in the experiment on SK-MEL-2 was > 100 µM (inactive) throughout. Besides, the GI50 in the experiment on UO-31, with SK-OV-3, in the experiment on OVCAR-5, with K562, in the experiment with A549 and in the experiment on SK-MEL-28 was > 100 µM (inactive) each time. The GI50 in the experiment with OVCAR-4, in the experiment on HOP-92 and in the experiment on HT-29 was > 100 µM (inactive) in each case.
